Values of other authors, collected in US6743821B2, “Glycerol-lactate esters for use as an energy supplement during exercise and recovery” (priority 2001, dated 2004).

How the values were obtained:
[1] = test system: isolated working hearts; settings: concentrated sodium lactate added to hearts from shocked animals
[2] = blood of Wistar rats

conversion of the infused tracer in the blood [2]	Structure (SMILES)	performance of isolated working hearts [1]
–	CC(O)C(=O)[O-].[Na+] (centres unmarked) [sodium lactate]	significantly enhanced
quickly converted to [3-^13C]lactate	[13CH3]C(=O)C(=O)O [[3-^13C]pyruvate]	–
